Values after ≈ are worked out from the molar mass of the structure shown.
Key:
anti-CPPU mAb 14G1 = assay: conventional indirect competitive ELISA (icELISA) based on mAb 14G1; assay type: binding, mouse; settings: for icELISA CR: CR = IC50 of CPPU/IC50 of analyte × 100%
Experimental: A conventional icELISA was developed for CPPU detection as follows: 0.5 μg/mL CPPU–BSA was dropped into the 96-well microplate (100 μL/well) and incubated overnight at 4 °C. The plates were blocked at 37 °C with 5% skim milk in PBST (PBS containing 0.05% Tween 20) for 1 h. After washing the plate with PBST three times, 50 μL of mAb 14G1 and 50 μL of sequentially diluted CPPU standard solution were added. The plate was incubated for 1 h at 37 °C, washed three times, and 100 μL/well of goat anti-mouse lgG-HRP solution was added for another 1 h of incubation. After washing six times, 100 μL/well of TMB substrate was added to the plate and reacted for 15 min. Finally, 2 M H2SO4 (50 μL/well) was added into the plate to stop the reaction, and the OD450 value was read with a microplate reader.
(§1) The cross-reactivities (CRs) of the developed MB-based assay and icELISA with compounds structurally related to CPPU were used to evaluate the selectivity of the assays. The CR value of each compound was calculated as follows: CR (%) = (IC50 of CPPU/IC50 of analyte) × 100%.
The experimental conditions of conventional icELISA were optimized. The evaluation criteria were the 50% inhibition concentration (IC50; representing the sensitivity) and maximum absorbance (ODmax) of the negative control. The working concentrations of the CPPU–BSA conjugate and mAb 14G1 were primarily optimized by a checkerboard titration. The concentration of CPPU–BSA coated in the plate was diluted from 2.0 μg/mL to 0.25 μg /mL, and anti-CPPU mAb 14G1 was diluted in a series of two-fold dilutions from 1:2000. […] After optimization, the concentrations of CPPU–BSA and mAb 14G1 were 0.5 μg/mL and 0.016 μg/mL for icELISA (Figure S2a). Then, the process parameters of icELISA were optimized through single-factor experiments. The influence of blocking reagents commonly used in ELISA systems, OVA, skim milk, and BSA, were evaluated and compared for their effectiveness in reducing nonspecific binding. Finally, 5% skim milk was selected, which gave a minimum IC50 value (Figure S2b). CPPU is a lipophilic, small organic compound, and methanol has been reported to be a more acceptable co-solvent for CPPU during the immunochemical reaction. The effect of methanol concentration on immunoassay performance was assessed. […] The ionic strength of 136 mM, which provided the lowest IC50 value, was selected. The pH value is one of the key factors influencing the characteristics of the assay. From Figure S2e, the value of pH 7.4 was selected as the optimum for the assay based on the favorable IC50 value. Under the optimal assay conditions, an indirect competitive ELISA standard curve was established (Figure 3). […] Moreover, the assay has a linear range (IC20–IC80) of 0.005–0.231 ng/mL.

anti-CPPU mAb 14G1–HRP [1] = assay: direct competitive magnetic-bead (MB)-based assay with mAb 14G1–HRP; assay type: binding, mouse; settings: for MB-Based Assay CR: CR = IC50 of CPPU/IC50 of analyte × 100%
Experimental: A direct competitive MB-based assay was developed as follows. First, the 96-well microtiter plate was pre-sealed with 5% skim milk at 37 °C for 1 h. After washing with PBST, MB–CPPU–BSA (10 μg/μL, 10 μL per well) was added to the 96-well plate. Subsequently, 50 μL of serially diluted CPPU standards and 50 μL of diluted mAb–HRP (1:3200) were mixed into the wells. The plate was shaken well and incubated at 37 °C for 20 min and then placed on a magnetic base to precipitate the MB. Then, the supernatant was discarded, and the plate was washed three times with PBST. After washing, TMB substrate (100 μL per well) was added and incubated for 15 min at 37 °C. The reaction was stopped with 2 M H2SO4, and the absorbance was measured at a wavelength of 450 nm.
The reaction parameters greatly influence assay sensitivity. Therefore, the experimental parameters including concentrations of MB–CPPU–BSA and mAb–HRP, ionic strength, pH value, and organic solvent content in buffer were investigated to improve the sensitivity of the MB-based assay. After optimization, the standard curve for the MB-based assay was generated by plotting the B/B0 (B and B0 were defined as the OD450 in the presence and absence of CPPU, respectively) against the logarithm of CPPU concentration. The 50% inhibitory concentration value (IC50) calculated from the curves was used to evaluate assay sensitivity.
as §1
To obtain better analytical performance of the MB-based assay, the reaction conditions were investigated. First of all, the working concentrations of MB–CPPU–BSA and mAb 14G1–HRP were determined by checkerboard titration as 0.1 mg/mL and 1:6400 dilution, respectively (Table S1). Then, the influence of other parameters on the assay was also optimized, in which the IC50 value was used as the main criterion. The effects of different ionic strengths and different pH values of the PBS solution on antigen–antibody binding in the MB-based assay were evaluated (Figure S4a,b). […] The optimal methanol concentration was selected to be 5% for the lower IC50. To shorten the detection duration, the incubation time for the competitive reaction between MB–CPPU–BSA and free-CPPU for binding to mAb–HRP tracer was optimized in sequence. […] Shorter incubation times may result in insufficient antigen–antibody binding, while longer incubation times not only further increased the maximum intensity but also led to higher background signals from non-specific binding. Therefore, incubation was stopped after 20 min, and beads were washed to remove unbound antibody.

mAb (s5#34) = settings: cited from earlier work
rats = settings: cited from earlier work
mAb, P6#42 = settings: cited from earlier work
anti-CPPU mAb 14G1–HRP [2] = assay: direct competitive magnetic-bead (MB)-based assay with mAb 14G1–HRP; assay type: binding, mouse
mAb against CPPU = settings: cited from earlier work
zebrafish = settings: cited from earlier work
mAb = settings: cited from earlier work
pAb = system: pAb; parameters: method as in earlier work; settings: cited from earlier work

CON(C)C(=O)Nc1ccc(Cl)c(Cl)c1 [Linuron]
icELISA CR (anti-CPPU mAb 14G1): <1.0% | icELISA IC50 (anti-CPPU mAb 14G1; optimal assay conditions): >2.5 ng/mL | MB-Based Assay CR (anti-CPPU mAb 14G1–HRP [1]): <0.6% | MB-Based Assay IC50 (anti-CPPU mAb 14G1–HRP [1]; optimized conditions): >1.0 ng/mL

Cc1ccc(NC(=O)N(C)C)cc1Cl [Chlorotoluron]
icELISA CR (anti-CPPU mAb 14G1): <1.0% | icELISA IC50 (anti-CPPU mAb 14G1; optimal assay conditions): >2.5 ng/mL | MB-Based Assay CR (anti-CPPU mAb 14G1–HRP [1]): <0.6% | MB-Based Assay IC50 (anti-CPPU mAb 14G1–HRP [1]; optimized conditions): >1.0 ng/mL

O=C(Nc1ccccc1)Nc1cnns1 [Thidiazuron]
dcELISA cross-reactivity (CR) (mAb (s5#34); mAb s5#34): 71% | icELISA CR (anti-CPPU mAb 14G1): <1.0% | icELISA CR (anti-CPPU mAb 14G1; listed as thidiazuron): negligible cross-reaction | icELISA IC50 (anti-CPPU mAb 14G1; optimal assay conditions): >2.5 ng/mL | MB-Based Assay CR (anti-CPPU mAb 14G1–HRP [1]): <0.6% | MB-Based Assay CR (anti-CPPU mAb 14G1–HRP [1]; listed as thidiazuron): negligible cross-reaction | MB-Based Assay IC50 (anti-CPPU mAb 14G1–HRP [1]; optimized conditions): >1.0 ng/mL

Clc1ccccc1-c1nnc(-c2ccccc2Cl)nn1 [Clofentezine]
icELISA CR (anti-CPPU mAb 14G1): <1.0% | icELISA IC50 (anti-CPPU mAb 14G1; optimal assay conditions): >2.5 ng/mL | MB-Based Assay CR (anti-CPPU mAb 14G1–HRP [1]): <0.6% | MB-Based Assay IC50 (anti-CPPU mAb 14G1–HRP [1]; optimized conditions): >1.0 ng/mL

CN(C)C(=O)Nc1ccc(Cl)c(Cl)c1 [Diuron]
icELISA CR (anti-CPPU mAb 14G1): <1.0% | icELISA IC50 (anti-CPPU mAb 14G1; optimal assay conditions): >2.5 ng/mL | MB-Based Assay CR (anti-CPPU mAb 14G1–HRP [1]): <0.6% | MB-Based Assay IC50 (anti-CPPU mAb 14G1–HRP [1]; optimized conditions): >1.0 ng/mL

O=C(Nc1ccccc1)Nc1ccnc(Cl)c1 [Forchlorfenuron (CPPU), Forchlorfenuron]
toxic effects in rats (rats): potential adverse effects on the ovaries and on the production of steroid hormones | LFIA IC50 (mAb, P6#42): 0.286 ng/mL | LFIA LOD (mAb, P6#42): 0.045 ng/mL | LFIA linear range (mAb, P6#42): 0.089 to 0.916 ng/mL | dcELISA (mAb) LOD (mAb (s5#34)): 0.01 ng/mL | dcELISA IC50 (mAb (s5#34); in buffer): 0.063 ng/mL | icELISA IC50 during optimization (anti-CPPU mAb 14G1; 5% methanol, Figure S2c): 0.0372 ng/mL | icELISA CR (anti-CPPU mAb 14G1): 100% | icELISA IC50 (anti-CPPU mAb 14G1; optimal assay conditions): 0.0253 ng/mL | icELISA limit of detection (LOD, IC10) (anti-CPPU mAb 14G1; optimal assay conditions): 0.002 ng/mL | icELISA linear range (IC20–IC80) (anti-CPPU mAb 14G1; optimal assay conditions): 0.005 to 0.231 ng/mL | IC50, MB-based assay optimization (anti-CPPU mAb 14G1–HRP [2]; mAb-HRP 1:400, MB-CPPU-BSA 0.0125 μg/μL): 0.0315 ng/mL (≈ 0.127 nM) | IC50, MB-based assay optimization (anti-CPPU mAb 14G1–HRP [2]; mAb-HRP 1:800, MB-CPPU-BSA 0.025 μg/μL): 0.0147 ng/mL (≈ 0.0593 nM) | IC50, MB-based assay optimization (anti-CPPU mAb 14G1–HRP [2]; mAb-HRP 1:1600, MB-CPPU-BSA 0.05 μg/μL): 0.0139 ng/mL (≈ 0.0561 nM) | IC50, MB-based assay optimization (anti-CPPU mAb 14G1–HRP [2]; mAb-HRP 1:3200, MB-CPPU-BSA 0.10 μg/μL): 0.0132 ng/mL (≈ 0.0533 nM) | IC50, MB-based assay optimization (anti-CPPU mAb 14G1–HRP [2]; mAb-HRP 1:6400, MB-CPPU-BSA 0.20 μg/μL): 0.0140 ng/mL (≈ 0.0565 nM) | MB-Based Assay CR (anti-CPPU mAb 14G1–HRP [1]): 100% | estimated LOD in grape, MB-based assay (anti-CPPU mAb 14G1–HRP [1]; grape, considering dilution factor of the sample (100-fold)): 0.0168 µg/kg | estimated LOD in kiwifruit, MB-based assay (anti-CPPU mAb 14G1–HRP [1]; kiwifruit, considering dilution factor of the sample (100-fold)): 0.0191 µg/kg | MB-Based Assay IC50 (anti-CPPU mAb 14G1–HRP [1]; optimized conditions): 0.0061 ng/mL | MB-based assay LOD (anti-CPPU mAb 14G1–HRP [1]; optimized conditions): 0.0004 ng/mL | MB-based assay linear detection range (IC20–IC80) (anti-CPPU mAb 14G1–HRP [1]; optimized conditions): 0.0016 to 0.0259 ng/mL | icELISA IC50 (mAb against CPPU): 1.04 ng/mL | icELISA LOD (mAb against CPPU): 0.16 ng/mL | icELISA linear range (mAb against CPPU): 0.31 to 3.43 ng/mL | toxic effects in zebrafish (zebrafish): cardiac morphology deformation, cardiac contractile dysfunction, and erythrocyte reduction | icELISA (mAb) LOD (mAb): 0.013 ng/mL | icELISA (mAb) linear range (mAb): 0.022 to 0.156 ng/mL | dcELISA (pAb) IC50 (pAb): 0.077 ng/mL | dcELISA (pAb) LOD (pAb): 0.012 ng/mL | dcELISA (pAb) linear range (pAb): 0.025-0.276 ng/mL

— paper PMC10296238, “A Magnetic-Bead-Based Immunoassay with a Newly Developed Monoclonal Antibody for Rapid and Highly Sensitive Detection of Forchlorfenuron” (Biosensors, 2023)
